The subject of data set [1] is A549 cells. Briefly: MTT cytotoxicity evaluation in A549 cells. The settings on record: for cell viability: compared to untreated control. Type of data set: cell-based. As to the method:
To confirm the effect of novel flavone derivative I on cell viability, A549 cells, derived from lung cancer, were used to examine cell viability with MTT [3-(4,5-dimethylthiazol-2-yl)-2,5-diphenyltetrazolium bromide]. After being suspended in a medium, A549 cells were dispensed into a 96-well plate and incubated for 24 hours. After 24 hours, 200 μL of a medium containing 0 to 20 μM BGC was added to each well of the plate and incubated for 24 or 48 hours. After incubation, MTT was diluted (0.5 mg/ml) in phosphate-buffered saline (PBS). Then, 20 μL of the diluted MTT was dispensed into each well, and incubation was performed in a CO2 incubator for 4 hours. After 4 hours, the MTT solution was removed, and 200 μL of dimethyl sulfoxide (DMSO) was dispensed into each well to dissolve the formazan precipitate for 5 minutes. Next, the absorbance was measured at 595 nm.
Cytotoxicity tests of novel flavone derivative II (Achem II) on A549 cells, HULEC-5a cells, and HLF cells were performed in the same manner as in Example 1 above, using the MTT assay. The results thereof are shown in FIGS. 17 to 19 as cell viability (%) after 24, 48, and 72 hours compared to that of the control group, the untreated sample group.
Cytotoxicity tests of novel flavone derivative III (Achem III) on A549 cells, HULEC-5a cells, and HLF cells were performed in the same manner as in Example 1 above, using the MTT assay. The results thereof are shown in FIGS. 27 to 29 as cell viability (%) after 24, 48, and 72 hours compared to that of the control group, the untreated sample group.

Data set [2] has as its system A549 cells. Briefly: Effect upon EGF treatment in A549 cells (western blot of protein levels). Particulars: 1 hour. Type of data set: cell-based. As to the method:
(§1) A549 cells, derived from lung cancer, were incubated at different cell numbers depending on the sample treatment time. 4.5×10^5 cells (30 minutes to 12 hours), 4.0×10^5 cells (24 hours), and 3.5×10^5 cells (48 hours) were suspended in the respective media, dispensed into a 60-mm plate, and incubated for 24 hours. After 24 hours, each plate was treated with EGF (2 ng/ml) alone or in combination with novel flavone derivative I at varying concentrations or a predetermined concentration. After a predetermined period (30 minutes to 48 hours) of incubation, the cells were lysed with RIPA lysis buffer ([50 mM Tris]-Cl (pH, 7.4), 1% NP-40, 150 mM NaCl, 1 mM EDTA, and 1 mM, phenylmethylsulfonyl fluoride (PMSF)) containing MG-132 (10 μM). Next, only the supernatant was collected by centrifugation (at 14,000 rpm for 10 minutes) at 4° C., and the proteins were separated by SDS-polyacrylamide gel electrophoresis (SDS-PAGE). […]
FIGS. 11 and 12 show the results thereof. […] Thus, the degree to which pulmonary fibrosis-related factors, whose expression levels were increased in A549 cells by EGF treatment, were inhibited by the treatment with novel flavone derivative I was evaluated.
The effect of novel flavone derivative II upon EGF treatment in A549 cells was evaluated in the same manner as in Example 1 above.
On the technique in general: In western blotting, separated proteins are transferred to a membrane and probed.

Data set [3] deals with A549 cells. Briefly: Effect of bleomycin treatment on A549 cells (western blot of protein levels). The data set is classed as cell-based. The settings on record: BLM and/or compound, 3, 24, and 48 hours. As to the method: as §1, with “bleomycin (BLM)” for “EGF (2 ng/ml)”, “at” for “at varying concentrations or”, “period” for “period (30 minutes to 48 hours)”, “mM” for “mM,”, “(SDS-PAGE). The separated proteins were transferred to a polyvinylidene difluoride membrane (PVDF membrane), reacted in 5% nonfat dry milk for 3 hours, and then reacted with primary antibodies at 4° C. for 12 hours. After 12 hours, the proteins further reacted with secondary antibodies corresponding to the respective primary antibodies. Then, the protein band was examined, according to the manufacturer's protocol, using an ECL kit.” for “(SDS-PAGE).”

Data set [4] relates to HULEC-5a cells. Briefly: Effect of bleomycin treatment on Hulec-5a cells (western blot of protein levels). Type of data set: cell-based, human. Particulars: Hulec-5a cells treated with bleomycin, FIG. 14. As to the method: 1.2×10^6 Hulec-5a cells, derived from pulmonary vessels, were suspended in a medium, dispensed into a 100-mm plate, and incubated for 24 hours. After 24 hours, each plate was treated with BLM alone or in combination with novel flavone derivative I at varying concentrations or a predetermined concentration. After a predetermined period of incubation, the cells were lysed with RIPA lysis buffer ([50 mM Tris]-Cl (pH, 7.4), 1% NP-40, 150 mM NaCl, 1 mM EDTA, and 1 mM phenylmethylsulfonyl fluoride (PMSF)) containing MG-132 (10 μM). Next, only the supernatant was collected by centrifugation (at 14,000 rpm for 10 minutes) at 4° C., and the proteins were separated by SDS-polyacrylamide gel electrophoresis (SDS-PAGE). The separated proteins were transferred to a polyvinylidene difluoride membrane (PVDF membrane), reacted in 5% nonfat dry milk for 3 hours, and then reacted with primary antibodies at 4° C. for 12 hours. After 12 hours, the proteins further reacted with secondary antibodies corresponding to the respective primary antibodies. Then, the protein band was examined, according to the manufacturer's protocol, using an ECL kit.

With `COc1ccc(-c2c(-c3ccc(O)c(O)c3)oc3cc(OC)c(OC)cc3c2=O)cc1` [novel flavone derivative I, 2-(3,4-dihydroxyphenyl)-6,7-dimethoxy-3-(4-methoxyphenyl)-4H-chromen-4-one], in data set [1] (treatment concentration of 5 μM, incubated for 24 hours, MTT), the cytotoxicity entry is recorded as “No cytotoxicity was observed”. Also, the cell viability result in data set [1] (treatment concentration of 5 μM, incubated for 48 hours) is reported as “about 80%”. Moreover, the “levels of fibrosis-related factors (p-EGFR, EGFR, p-AKT, HIF-1α, and NOX2), increased by EGF treatment” value in data set [2] (2 ng/mL EGF and compound at 1, 3, and 5 or 2 μM, FIGS. 11 and 12) is reported as “decreased”. Further, the “levels of pulmonary fibrosis-related factors (fibronectin, α-SMA, HIF-1α, NOX1, NOX2, and NOX4), increased by BLM treatment” value in data set [3] is recorded as “decreased”. Besides, in data set [4], the “levels of pulmonary fibrosis-related factors (fibronectin, α-SMA, HIF-1α, NOX2, and NOX4)” value is reported as “decreased”.
On to `COc1ccc(-c2c(-c3ccc(O)c(OC)c3)oc3cc(OC)c(OC)cc3c2=O)cc1` [novel flavone derivative II, 2-(4-hydroxy-3-methoxyphenyl)-6,7-dimethoxy-3-(4-methoxyphenyl)-4H-chromen-4-one], for which the cell viability was not below 80% in data set [1] (all treatment concentrations, incubated for 24 and 48 hours); not above 80% in data set [1] (concentrations of 3 μM or higher, incubated for 72 hours). The “level of NOX2, a fibrosis-related factor increased by EGF treatment” value in data set [2] (2 ng/mL EGF and compound, FIG. 24) is “decreased”.

What is called cell viability is a per cent measure of how many cells are alive, often set against a control. A higher cell viability goes with better survival.

The values are drawn from patent publication US20240300913A1, “FLAVONE DERIVATIVE AND USE THEREOF FOR IMPROVING PULMONARY FIBROSIS” (A-CHEMBIO CO., LTD, priority 2023, published 2024).
